Where two headings read alike, the source gives them in different places.
Tests used:
[1] = test system: melb-a cells (melanoblasts); experiment: cells; assay type: cell-based; conditions: for fold induction at 1 µM / fold induction at 10 µM / fold induction at 100 µM: read-out: Increase of cell migration rate compared to negative control
[2] = test system: Melb-a (melanoblast) cells
[3] = test system: Melb-a (melanoblast) cells; experiment: cells; assay type: cell-based
[4] = 24 h, read-out: Cell migration rate (%)
[5] = 96 h, read-out: Melanin content compared to negative control (%)

For `O=Cc1ccc(CO)o1` [Example 1, 5-(hydroxymethyl)furan-2-carbaldehyde], the “Cell migration rate (in words)” value [1] was “decreased”, the “Cell migration rate compared to negative control (in words)” value [1] was “gradually increased” and the fold induction at 1 µM ([1]; 24 h) was 2. For the same compound, the fold induction at 10 µM ([1]; 24 h) was 2.7, the fold induction at 100 µM ([1]; 24 h, 100 μM) was ~4 and the activity at 25 µM [1, 4] was 263 ± 12.7%. For the same compound, the activity at 50 µM [1, 4] was 309 ± 15.5%, the activity at 1000 µM [1, 4] was 253 ± 13.4% and the Cell viability ([2]; mouse) was ≥ 105%. The “Melanin content compared to negative control (in words)” value [3] was “gradually increased”, the “Melanin content (in words)” value ([3]; 1000 μM) was “rather reduced” and the activity at 1000 µM [3, 5] was 149 ± 17.4%.

With `O=Cc1ccc(COCc2ccccc2)o1` [Example 2, 5-((benzyloxy)methyl)furan-2-carbaldehyde] the activity at 10 µM [1, 4] was 114 ± 18.9% and the activity at 10 µM [3, 5] was 82.4 ± 4.25%.

Work on `C=CCOCc1ccc(C=O)o1` [Example 3, 5-((allyloxy)methyl)furan-2-carbaldehyde] yielded an activity at 10 µM [1, 4] of 134 ± 11.7% and an activity at 10 µM [3, 5] of 95.2 ± 7.54%.

`O=Cc1ccc(C(=O)NCc2ccccc2)o1` [Example 4, N-benzyl-5-formylfuran-2-carboxamide] showed an activity at 10 µM [1, 4] of 115 ± 19.5% and an activity at 10 µM [3, 5] of 97.4 ± 4.47%.

With `CCCNC(=O)c1ccc(C=O)o1` [Example 5, 5-formyl-N-propylfuran-2-carboxamide] the fold induction at 10 µM ([1]; 24 h) was > 2, the activity at 10 µM [1, 4] was 229 ± 11.6% and the activity at 10 µM [3, 5] was 94.3 ± 1.51%.

In the case of `CNC(=O)c1ccc(C=O)o1` [Example 6, 5-formyl-N-methylfuran-2-carboxamide], the activity at 10 µM [1, 4] is reported as 139 ± 17.5% and the activity at 10 µM [3, 5] is reported as 95.9 ± 2.87%.

For `O=Cc1ccc(C(=O)OCc2ccccc2)o1` [Example 7, Benzyl 5-formylfuran-2-carboxylate], the fold induction at 10 µM ([1]; 24 h) was > 2, the activity at 10 µM [1, 4] was 202 ± 61.9% and the activity at 10 µM [3, 5] was 134 ± 2.32%.

In the case of `C=CCOC(=O)c1ccc(C=O)o1` [Example 8, allyl 5-formylfuran-2-carboxylate], the activity at 10 µM [1, 4] is reported as 178 ± 19.8% and the activity at 10 µM [3, 5] is reported as 122 ± 5.15%.

In the case of `COC(=O)c1ccc(C(OC)OC)o1` [Example 9, methyl 5-(dimethoxymethyl)furan-2-carboxylate], the “Cell migration rate compared to negative control (in words)” value [1] is reported as “gradually increased”, the fold induction at 1 µM ([1]; 24 h) is reported as ~1.9 and the fold induction at 10 µM ([1]; 24 h) is reported as > 2. It also gave a fold induction at 100 µM ([1]; 24 h, 100 μM) of ~3, an activity at 1 µM [1, 4] of 198 ± 6.81% and an activity at 100 µM [1, 4] of 303 ± 18.7%. The Cell viability ([2]; mouse) was ≥ 99%, the “Melanin content compared to negative control (in words)” value [3] was “gradually increased” and the activity at 1 µM [3, 5] was 128 ± 7.18%. For the same compound, the activity at 10 µM [3, 5] was 131 ± 2.03% and the activity at 100 µM [3, 5] was 142 ± 5.43%.

In the case of `COC(=O)c1ccc(C=O)o1` [Example 10, methyl 5-formylfuran-2-carboxylate], the “Cell migration rate compared to negative control (in words)” value [1] is reported as “gradually increased”, the fold induction at 1 µM ([1]; 24 h) is reported as ~1.9 and the fold induction at 10 µM ([1]; 24 h) is reported as > 2. For the same compound, the fold induction at 100 µM ([1]; 24 h, 100 μM) was ~2.7, the activity at 1 µM [1, 4] was 189 ± 11.4% and the activity at 100 µM [1, 4] was 283 ± 7.03%. For the same compound, the Cell viability ([2]; mouse) was ≥ 99%, the “Melanin content compared to negative control (in words)” value [3] was “gradually increased” and the “Melanin content (in words)” value ([3]; 100 μM) was “somewhat reduced”. The activity at 1 µM [3, 5] was 136 ± 5.19% and the activity at 100 µM [3, 5] was 159 ± 1.77%.

Work on `CCOC(=O)c1ccc(CO)o1` [Example 11, ethyl 5-(hydroxymethyl)furan-2-carboxylate] yielded an activity at 10 µM [1, 4] of 112 ± 13.9% and an activity at 10 µM [3, 5] of 104 ± 4.63%.

Compound `OCc1ccc(CO)o1` [Example 12, Furan-2,5-diyldimethanol] has an activity at 10 µM [1, 4] of 173 ± 29.9% and an activity at 10 µM [3, 5] of 139 ± 1.6%.

Work on `COC(=O)c1ccc(CO)o1` [Example 13, methyl 5-(hydroxymethyl)furan-2-carboxylate] yielded an activity at 10 µM [1, 4] of 161 ± 29.4% and an activity at 10 µM [3, 5] of 145 ± 5.9%.

With `O=C(O)c1ccc(CO)o1` [Example 14, 5-(hydroxymethyl)furan-2-carboxylic Acid] the fold induction at 10 µM ([1]; 24 h) was > 2, the activity at 10 µM [1, 4] was 264 ± 7.81% and the activity at 10 µM [3, 5] was 158.4 ± 0.75%.

In the case of `CC(O)c1ccc(COC2CCCCO2)o1` (centres unmarked) [Example 15, 1-(5-(((tetrahydro-2H-pyran-2-yl)oxy)methyl)furan-2-yl)ethanol], the activity at 10 µM [1, 4] is reported as 197 ± 33.8% and the activity at 10 µM [3, 5] is reported as 144 ± 4.59%.

In the case of `CC(O)c1ccc(CO)o1` (centres unmarked) [Example 16, 1-(5-(hydroxymethyl)furan-2-yl)ethanol], the fold induction at 10 µM ([1]; 24 h) is reported as > 2, the activity at 10 µM [1, 4] is reported as 215 ± 13.9% and the activity at 10 µM [3, 5] is reported as 139 ± 19.9%.

`O=Cc1ccc(C=O)o1` [Example 17, Furan-2,5-dicarbaldehyde] was tested, and the activity at 10 µM [1, 4] was 118 ± 21.9%, the “Cell viability (in words)” value [2] was “very low” and the “Cell viability (%)” value ([2]; mouse) was 23.08 ± 5.95%. For the same compound, the “Cell viability (in words)” value ([2]; mouse) was “low compared to when the compound of Example 1 was treated”, the “Melanin content compared to negative control (in words)” value ([3]; 10 μM) was “lowered” and the activity at 10 µM [3, 5] was 95.3 ± 6.49%.

With `CC(O)c1ccc(C=O)o1` (centres unmarked) [Example 18, 5-(1-hydroxyethyl)furan-2-carbaldehyde] the “Cell migration rate compared to negative control (in words)” value [1] was “gradually increased”, the “Cell migration rate (in words)” value ([1]; 100 μM) was “rather decreased” and the fold induction at 1 µM ([1]; 24 h) was ~1.7. For the same compound, the fold induction at 10 µM ([1]; 24 h) was > 2, the activity at 1 µM [1, 4] was 177 ± 25.5% and the activity at 100 µM [1, 4] was 167 ± 20.3%. The “Melanin content compared to negative control (in words)” value [3] was “slightly increased”, the “Melanin content (in words)” value ([3]; 100 μM) was “decreased” and the activity at 1 µM [3, 5] was 125 ± 3.04%. For the same compound, the activity at 100 µM [3, 5] was 128 ± 4.15%.

`CC(=O)OC(C)c1ccc(C=O)o1` (centres unmarked) [Example 19, 1-(5-formylfuran-2-yl)ethyl Acetate] was tested, and the fold induction at 10 µM ([1]; 24 h) was > 2, the activity at 10 µM [1, 4] was 230 ± 25.1% and the activity at 10 µM [3, 5] was 116 ± 3.15%.

For `CCC(O)c1ccc(C=O)o1` (centres unmarked) [Example 20, 5-(1-hydroxypropyl)furan-2-carbaldehyde], the fold induction at 10 µM ([1]; 24 h) was > 2, the activity at 10 µM [1, 4] was 261 ± 16.8% and the activity at 10 µM [3, 5] was 112 ± 1.5%.

For `CCC(OC(C)=O)c1ccc(C=O)o1` (centres unmarked) [Example 21, 1-(5-formylfuran-2-yl)propyl Acetate], the fold induction at 10 µM ([1]; 24 h) was > 2, the activity at 10 µM [1, 4] was 260 ± 16.5% and the activity at 10 µM [3, 5] was 115 ± 2.96%.
